Data: ChEMBL document CHEMBL4000195, “Design and synthesis of novel 7-aminosubstituted pyrido[2,3-b]pyrazines exhibiting anti-breast cancer activity” (Eur J Med Chem, 2017)
The source made the active and inactive calls. The rule behind the calls is not given here.

Legend:
[1] = target: Cyclin-dependent kinase 5/CDK5 activator 1 (Homo sapiens) (UniProt Q00535+Q15078); test: Inhibition of human CDK5/p25 using histone H1 as substrate in presence of [gamma33P]ATP after 30 mins by scintillation counting method; assay type: protein-complex assay
MDA-MB-231 [2] = test: Cytotoxicity against human MDA-MB-231 cells at 10 uM by MTT assay; assay type: functional
[3] = target: Muscle, skeletal receptor tyrosine-protein kinase (Homo sapiens) (UniProt O15146); test: Inhibition of human wild type partial length MUSK (M553 to V869 residues) expressed in bacterial expression system at 10 uM by KinomeScan method relative to control
[4] = target: Tyrosine-protein kinase Fyn (Homo sapiens) (UniProt P06241); test: Inhibition of human wild type partial length FYN (T243 to L534 residues) expressed in bacterial expression system at 10 uM by KinomeScan method relative to control
[5] = AUC (0 to 8 hrs) in NOD/SCID mouse at 0.5 mg/kg, ip administered as single dose by LC-MS/MS method; assay type: ADME, organism-based; set-up: dose 0.5 mg/kg, time < 8 hr, route intraperitoneal; details: in vivo
MDA-MB-231 [6] = test: Cytotoxicity against human MDA-MB-231 cells at 5 uM by MTT assay; assay type: functional
[7] = target: Receptor-interacting serine/threonine-protein kinase 3 (Homo sapiens) (UniProt Q9Y572); test: Inhibition of human RIPK3
Mus musculus = test: In vivo inhibition of SRC phosphorylation in NOD/SCID mouse tumor xenografted with HER2-amplified human HCC1954 cells at 10 mg/kg, ip administered once daily for 18 days measured after 1 hr last dose; assay type: functional, organism-based
T47D = test: Cytotoxicity against human T47D cells at 5 uM by MTT assay; assay type: functional
[8] = Cmax in NOD/SCID mouse at 40 mg/kg, ip administered as single dose by LC-MS/MS method; assay type: ADME, organism-based; set-up: dose 40 mg/kg, route intraperitoneal; details: in vivo
[9] = target: Serine/threonine-protein kinase 4 (Homo sapiens) (UniProt Q13043); test: Inhibition of human wild type full length MST1 (M1 to F487 residues) expressed in bacterial expression system at 10 uM by KinomeScan method relative to control
[10] = target: Tyrosine-protein kinase HCK (Homo sapiens) (UniProt P08631); test: Inhibition of human wild type full length HCK (M22 to P526 residues) expressed in bacterial expression system at 10 uM by KinomeScan method relative to control
[11] = target: Phosphatidylinositol 4,5-bisphosphate 3-kinase catalytic subunit alpha isoform (Homo sapiens, UniProt P42336); test: Inhibition of human wild type partial length PIK3CA (R108 to N1068 residues) expressed in mammalian expression system at 10 uM by KinomeScan method relative to control
[12] = target: Aurora kinase B/Inner centromere protein (Homo sapiens) (UniProt Q96GD4+Q9NQS7); test: Inhibition of human AURKB/INCENP; assay type: protein-complex assay
[13] = Tmax in NOD/SCID mouse at 40 mg/kg, ip administered as single dose by LC-MS/MS method; assay type: ADME, organism-based; details: in vivo
[14] = target: Hepatocyte growth factor receptor (Homo sapiens) (UniProt P08581); test: Inhibition of human wild type partial length MET (D1010 to S1367 residues) expressed in bacterial expression system at 10 uM by KinomeScan method relative to control
[15] = target: Fibroblast growth factor receptor 1 (Homo sapiens) (UniProt P11362); test: Inhibition of human wild type partial length FGFR1 (P357 to V669 residues) expressed in bacterial expression system at 10 uM by KinomeScan method relative to control
[16] = target: Phosphatidylinositol 4,5-bisphosphate 3-kinase catalytic subunit alpha isoform (Homo sapiens, UniProt P42336, H1047R); test: Inhibition of PI3Kalpha H1047R mutant (unknown origin) using PIP2 liposomes as substrate in presence of biotin-labeled PIP3 and GST-GRP1-PH by streptavidin-HRP based assays
[17] = target: T1, Serine/threonine-protein kinase haspin (Homo sapiens) (UniProt Q8TF76); test: Inhibition of human HASPIN
T1 sequence (whole entry): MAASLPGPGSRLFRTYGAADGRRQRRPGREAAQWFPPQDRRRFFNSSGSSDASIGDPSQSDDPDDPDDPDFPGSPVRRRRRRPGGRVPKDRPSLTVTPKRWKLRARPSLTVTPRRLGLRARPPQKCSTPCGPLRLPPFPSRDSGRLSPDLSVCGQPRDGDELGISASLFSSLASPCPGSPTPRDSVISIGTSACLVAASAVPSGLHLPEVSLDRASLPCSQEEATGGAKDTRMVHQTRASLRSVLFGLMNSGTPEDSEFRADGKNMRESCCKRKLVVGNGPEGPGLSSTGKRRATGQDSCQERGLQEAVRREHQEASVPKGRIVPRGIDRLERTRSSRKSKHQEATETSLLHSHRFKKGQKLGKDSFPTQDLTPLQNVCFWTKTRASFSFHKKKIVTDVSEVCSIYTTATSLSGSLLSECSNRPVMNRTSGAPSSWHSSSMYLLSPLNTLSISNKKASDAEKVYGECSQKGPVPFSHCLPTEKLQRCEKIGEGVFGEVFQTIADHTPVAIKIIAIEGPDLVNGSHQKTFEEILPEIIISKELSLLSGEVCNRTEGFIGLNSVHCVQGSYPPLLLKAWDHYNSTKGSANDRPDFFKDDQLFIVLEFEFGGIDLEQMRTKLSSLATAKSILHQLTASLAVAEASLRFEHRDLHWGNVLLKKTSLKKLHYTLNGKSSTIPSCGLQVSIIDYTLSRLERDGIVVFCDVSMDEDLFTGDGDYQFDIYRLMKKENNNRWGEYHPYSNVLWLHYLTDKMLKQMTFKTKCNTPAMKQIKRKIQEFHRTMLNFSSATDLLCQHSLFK

HCC1954 [18] = test: Anti-tumor activity against HER2-amplified human HCC1954 cells xenografted in NOD/SCID mouse assessed as proliferation index at 10 mg/kg, ip administered once daily for 18 days measured after 1 hr last dose by Ki-67/hematoxylin and eosin staining based microscopic analysis (reference value: 78.4 +/- 14.8%); assay type: functional
HCC1954 [19] = test: Cytotoxicity against human HCC1954 cells at 5 uM by MTT assay; assay type: functional
[20] = target: Mitogen-activated protein kinase 3 (Homo sapiens) (UniProt P27361); test: Inhibition of human wild type full length ERK1 (M1 to P379 residues) expressed in bacterial expression system at 10 uM by KinomeScan method relative to control
SK-BR-3 = test: Cytotoxicity against human SKBR3 cells by MTT assay; assay type: functional, cell-based
[21] = target: Dual specificity mitogen-activated protein kinase kinase 4 (Homo sapiens) (UniProt P45985); test: Inhibition of human wild type partial length MEK4 (S84 to D399 residues) expressed in mammalian expression system at 10 uM by KinomeScan method relative to control
[22] = AUC (0 to 8 hrs) in NOD/SCID mouse at 0.5 mg/kg, po administered as single dose by LC-MS/MS method; assay type: ADME, organism-based; set-up: time < 8 hr, dose 0.5 mg/kg, route oral; details: in vivo
[23] = target: Tyrosine-protein kinase ZAP-70 (Homo sapiens) (UniProt P43403); test: Inhibition of human wild type partial length ZAP70 (D20 to G299 residues) expressed in mammalian expression system at 10 uM by KinomeScan method relative to control
Chain of Tyrosine-protein kinase ZAP-70 (Homo sapiens) (P43403 whole entry, the tested form may be a part): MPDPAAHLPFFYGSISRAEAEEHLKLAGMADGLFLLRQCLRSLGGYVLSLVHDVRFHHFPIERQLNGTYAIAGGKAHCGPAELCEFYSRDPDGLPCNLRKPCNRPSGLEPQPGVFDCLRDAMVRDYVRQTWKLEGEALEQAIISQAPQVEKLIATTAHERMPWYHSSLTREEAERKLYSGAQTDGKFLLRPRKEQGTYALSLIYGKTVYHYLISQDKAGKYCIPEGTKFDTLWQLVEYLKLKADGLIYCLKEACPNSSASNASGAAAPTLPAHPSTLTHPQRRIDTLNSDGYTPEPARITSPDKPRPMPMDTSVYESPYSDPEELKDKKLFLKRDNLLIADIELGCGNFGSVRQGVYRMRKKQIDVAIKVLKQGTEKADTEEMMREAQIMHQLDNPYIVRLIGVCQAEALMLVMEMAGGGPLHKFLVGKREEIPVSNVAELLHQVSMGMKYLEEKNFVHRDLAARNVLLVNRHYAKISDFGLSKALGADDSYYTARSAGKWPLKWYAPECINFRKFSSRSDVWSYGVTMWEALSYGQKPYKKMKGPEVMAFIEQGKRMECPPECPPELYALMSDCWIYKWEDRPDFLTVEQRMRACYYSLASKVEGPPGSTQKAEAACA

Chain of Mitogen-activated protein kinase 3 (Homo sapiens) (P27361 whole entry, the tested form may be a part): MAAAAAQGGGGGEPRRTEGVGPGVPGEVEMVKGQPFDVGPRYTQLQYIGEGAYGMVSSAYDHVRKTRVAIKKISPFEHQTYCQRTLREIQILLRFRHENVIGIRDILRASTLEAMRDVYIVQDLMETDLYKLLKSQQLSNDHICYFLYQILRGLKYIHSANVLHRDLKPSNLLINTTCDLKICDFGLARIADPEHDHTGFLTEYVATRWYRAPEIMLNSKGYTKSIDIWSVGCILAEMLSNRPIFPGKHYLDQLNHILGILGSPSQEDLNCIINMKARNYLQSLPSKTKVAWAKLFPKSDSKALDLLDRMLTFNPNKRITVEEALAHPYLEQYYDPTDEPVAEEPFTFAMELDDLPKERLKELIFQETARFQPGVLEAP
Chain of Serine/threonine-protein kinase 4 (Homo sapiens) (Q13043 whole entry, the tested form may be a part): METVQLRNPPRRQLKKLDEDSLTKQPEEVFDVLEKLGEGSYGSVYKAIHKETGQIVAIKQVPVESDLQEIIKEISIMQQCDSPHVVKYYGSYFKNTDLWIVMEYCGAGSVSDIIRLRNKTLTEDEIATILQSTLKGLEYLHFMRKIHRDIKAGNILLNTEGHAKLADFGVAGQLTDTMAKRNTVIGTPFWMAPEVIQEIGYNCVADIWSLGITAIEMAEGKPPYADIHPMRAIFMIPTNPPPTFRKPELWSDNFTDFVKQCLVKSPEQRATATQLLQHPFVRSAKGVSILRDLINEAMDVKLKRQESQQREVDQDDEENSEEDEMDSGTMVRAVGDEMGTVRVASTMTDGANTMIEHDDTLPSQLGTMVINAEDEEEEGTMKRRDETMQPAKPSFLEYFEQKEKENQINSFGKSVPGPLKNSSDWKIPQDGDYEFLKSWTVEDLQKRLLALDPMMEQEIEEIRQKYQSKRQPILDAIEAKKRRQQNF
Chain of Phosphatidylinositol 4,5-bisphosphate 3-kinase catalytic subunit alpha isoform (Homo sapiens, UniProt P42336, H1047R) (P42336 whole entry H1047R, canonical isoform): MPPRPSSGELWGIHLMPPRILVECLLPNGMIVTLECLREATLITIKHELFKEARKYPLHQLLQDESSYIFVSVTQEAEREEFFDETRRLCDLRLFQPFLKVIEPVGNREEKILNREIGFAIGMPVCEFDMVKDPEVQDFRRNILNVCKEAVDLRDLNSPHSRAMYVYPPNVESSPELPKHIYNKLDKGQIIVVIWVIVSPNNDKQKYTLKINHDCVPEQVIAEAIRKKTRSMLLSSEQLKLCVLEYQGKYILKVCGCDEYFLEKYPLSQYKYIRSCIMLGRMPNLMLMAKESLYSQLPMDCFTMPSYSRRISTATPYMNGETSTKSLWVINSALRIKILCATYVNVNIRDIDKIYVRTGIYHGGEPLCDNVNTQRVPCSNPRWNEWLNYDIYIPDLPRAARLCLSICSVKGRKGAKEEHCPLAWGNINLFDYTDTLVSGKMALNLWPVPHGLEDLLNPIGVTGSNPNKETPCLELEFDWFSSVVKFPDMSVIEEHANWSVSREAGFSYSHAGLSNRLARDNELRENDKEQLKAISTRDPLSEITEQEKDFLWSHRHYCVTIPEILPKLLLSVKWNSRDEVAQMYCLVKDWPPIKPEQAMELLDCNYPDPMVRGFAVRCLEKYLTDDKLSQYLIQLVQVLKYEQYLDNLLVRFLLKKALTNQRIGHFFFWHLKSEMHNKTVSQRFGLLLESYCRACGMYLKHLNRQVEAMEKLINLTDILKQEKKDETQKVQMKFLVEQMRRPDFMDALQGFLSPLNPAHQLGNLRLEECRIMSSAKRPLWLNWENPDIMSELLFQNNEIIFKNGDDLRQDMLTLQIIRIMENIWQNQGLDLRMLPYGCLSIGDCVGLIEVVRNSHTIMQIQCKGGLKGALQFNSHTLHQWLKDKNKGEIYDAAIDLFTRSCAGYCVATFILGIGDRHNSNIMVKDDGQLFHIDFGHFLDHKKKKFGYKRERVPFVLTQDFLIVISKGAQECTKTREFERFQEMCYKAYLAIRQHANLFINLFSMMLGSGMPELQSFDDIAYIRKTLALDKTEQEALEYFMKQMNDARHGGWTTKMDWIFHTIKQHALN
Chain of Muscle, skeletal receptor tyrosine-protein kinase (Homo sapiens) (O15146 whole entry, the tested form may be a part): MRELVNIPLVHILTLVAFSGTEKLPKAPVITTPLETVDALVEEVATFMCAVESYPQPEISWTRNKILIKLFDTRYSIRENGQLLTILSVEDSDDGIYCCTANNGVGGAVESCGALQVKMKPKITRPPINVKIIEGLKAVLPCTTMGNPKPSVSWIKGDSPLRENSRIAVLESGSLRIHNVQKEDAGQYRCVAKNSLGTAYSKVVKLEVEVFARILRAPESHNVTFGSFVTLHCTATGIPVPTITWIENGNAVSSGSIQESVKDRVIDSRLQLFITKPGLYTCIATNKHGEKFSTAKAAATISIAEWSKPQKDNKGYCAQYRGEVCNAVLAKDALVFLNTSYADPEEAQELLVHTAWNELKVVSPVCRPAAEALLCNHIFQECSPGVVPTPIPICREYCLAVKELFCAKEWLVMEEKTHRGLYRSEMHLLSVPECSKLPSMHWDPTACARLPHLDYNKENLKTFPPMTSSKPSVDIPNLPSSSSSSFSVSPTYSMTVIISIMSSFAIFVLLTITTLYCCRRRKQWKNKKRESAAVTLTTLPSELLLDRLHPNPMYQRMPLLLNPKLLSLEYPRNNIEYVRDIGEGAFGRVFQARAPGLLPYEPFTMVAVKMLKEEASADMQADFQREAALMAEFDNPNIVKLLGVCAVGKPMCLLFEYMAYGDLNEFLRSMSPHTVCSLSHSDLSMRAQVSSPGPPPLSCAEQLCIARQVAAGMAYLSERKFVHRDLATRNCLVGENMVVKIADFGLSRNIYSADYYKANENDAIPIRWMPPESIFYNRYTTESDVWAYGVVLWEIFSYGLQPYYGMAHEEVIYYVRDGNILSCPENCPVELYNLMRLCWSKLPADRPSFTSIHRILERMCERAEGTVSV
Chain of Fibroblast growth factor receptor 1 (Homo sapiens) (P11362 22-822 limits assumed): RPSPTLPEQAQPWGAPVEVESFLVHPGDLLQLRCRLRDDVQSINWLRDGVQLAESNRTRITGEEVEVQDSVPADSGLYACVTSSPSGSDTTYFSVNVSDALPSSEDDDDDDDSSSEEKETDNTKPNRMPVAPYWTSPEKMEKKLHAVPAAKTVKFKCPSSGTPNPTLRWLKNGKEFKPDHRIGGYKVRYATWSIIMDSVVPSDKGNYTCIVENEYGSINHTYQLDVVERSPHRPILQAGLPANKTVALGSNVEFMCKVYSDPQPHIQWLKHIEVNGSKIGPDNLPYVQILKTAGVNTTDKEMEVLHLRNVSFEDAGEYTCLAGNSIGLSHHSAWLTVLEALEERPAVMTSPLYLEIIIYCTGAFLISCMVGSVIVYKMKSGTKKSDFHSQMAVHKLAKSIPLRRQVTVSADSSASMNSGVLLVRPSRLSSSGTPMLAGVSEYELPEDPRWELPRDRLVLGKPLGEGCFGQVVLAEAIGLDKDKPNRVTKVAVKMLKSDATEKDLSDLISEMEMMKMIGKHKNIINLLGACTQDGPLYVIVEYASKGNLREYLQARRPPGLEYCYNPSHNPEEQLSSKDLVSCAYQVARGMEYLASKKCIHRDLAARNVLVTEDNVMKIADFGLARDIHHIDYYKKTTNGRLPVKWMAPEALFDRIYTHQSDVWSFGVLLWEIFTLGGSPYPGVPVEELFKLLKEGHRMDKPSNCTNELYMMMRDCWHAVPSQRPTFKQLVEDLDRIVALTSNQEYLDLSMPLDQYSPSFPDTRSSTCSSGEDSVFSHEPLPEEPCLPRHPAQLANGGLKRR
Chain of Tyrosine-protein kinase Fyn (Homo sapiens) (P06241 2-537 limits assumed): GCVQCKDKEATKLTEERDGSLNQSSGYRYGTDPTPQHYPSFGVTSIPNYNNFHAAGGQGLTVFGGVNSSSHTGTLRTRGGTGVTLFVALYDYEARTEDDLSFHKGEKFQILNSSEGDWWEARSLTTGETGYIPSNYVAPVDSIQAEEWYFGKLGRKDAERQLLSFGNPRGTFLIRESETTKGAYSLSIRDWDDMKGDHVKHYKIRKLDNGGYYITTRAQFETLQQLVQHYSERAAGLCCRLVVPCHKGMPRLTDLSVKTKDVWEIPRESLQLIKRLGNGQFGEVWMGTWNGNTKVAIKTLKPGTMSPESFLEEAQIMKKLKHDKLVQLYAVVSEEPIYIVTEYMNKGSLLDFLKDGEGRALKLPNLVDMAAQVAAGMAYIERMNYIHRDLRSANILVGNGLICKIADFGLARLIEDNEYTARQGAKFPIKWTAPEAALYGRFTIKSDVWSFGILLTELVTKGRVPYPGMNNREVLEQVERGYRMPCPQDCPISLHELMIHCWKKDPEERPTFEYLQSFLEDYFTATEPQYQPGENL
Chain of Phosphatidylinositol 4,5-bisphosphate 3-kinase catalytic subunit alpha isoform (Homo sapiens, UniProt P42336) (P42336 whole entry, the tested form may be a part, canonical isoform): as the sequence (P42336 whole entry H1047R, canonical isoform) above, with R1047H counted along it

With `Cc1nc2nc(Sc3ccccc3)cnc2cc1NC(=O)Nc1ccccc1` the inhibition [1] was “inactive”, the Activity (MDA-MB-231 [2]) was >50% and the inhibition [3] was 0%. The inhibition [4] was 6%, the AUC(0-t) at 8 h [5] was 2.85 µM·h and the Activity (MDA-MB-231 [6]) was >50%. The inhibition [7] was “inactive”, the inhibition (Mus musculus) was “Active” and the Activity (T47D) was >50%. For the same molecule, the Cmax [8] was 18.7 µM, the inhibition [9] was 0% and the inhibition [10] was 13%. The inhibition [11] was 0%, the inhibition [12] was “inactive” and the Tmax [13] was 2 h. It also gave an inhibition [14] of 40%, an inhibition [15] of 18% and an IC50 [16] of 22 µM. The inhibition [17] was “inactive”, the Activity_index (HCC1954 [18]) was 25.7% and the Activity (HCC1954 [19]) was >50%. The inhibition [20] was 11%, the IC50 (SK-BR-3) was 1.8 µM and the inhibition [21] was 0%. It also gave an AUC(0-t) at 8 h [22] of 1.53 µM·h and an inhibition [23] of 0%.
